Experimental data published in ChEMBL document CHEMBL1629461, “The novel benzopyran class of selective cyclooxygenase-2 inhibitors. Part 2: the second clinical candidate having a shorter and favorable human half-life” (Bioorg Med Chem Lett, 2010).

Tests used:
[1] = tested on: Rattus norvegicus; experiment: Antiinflammatory activity in rat air pouch model assessed as inhibition of carrageenan-induced paw edema; assay type: functional
[2] = species: Rattus norvegicus; experiment: Antiinflammatory activity in rat air pouch model assessed as inhibition of carrageenan-induced PGE2 production; assay type: functional
[3] = species: Homo sapiens; experiment: (§1) Half life in human; assay type: ADME, organism-based; conditions: in vivo
[4] = species: Rattus norvegicus; experiment: Antiinflammatory activity in rat air pouch model assessed as inhibition of carrageenan-induced inflammatory hyperalgesia; assay type: functional
[5] = tested on: Liver microsomes; experiment: Metabolic stability in human liver microsomes assessed as compound remaining; assay type: ADME, Microsome
[6] = species: Rattus norvegicus; experiment: Antiarthritic activity in rat assessed as inhibition of adjuent-induced arthritic pain; assay type: functional
[7] = tested on: Cynomolgus monkey; experiment: Half life in cynomolgus monkey; assay type: ADME, organism-based, Macaca fascicularis; conditions: in vivo
[8] = target: T1, Prostaglandin G/H synthase 2 (Homo sapiens, UniProt P35354)
T1 sequence (P35354 whole entry): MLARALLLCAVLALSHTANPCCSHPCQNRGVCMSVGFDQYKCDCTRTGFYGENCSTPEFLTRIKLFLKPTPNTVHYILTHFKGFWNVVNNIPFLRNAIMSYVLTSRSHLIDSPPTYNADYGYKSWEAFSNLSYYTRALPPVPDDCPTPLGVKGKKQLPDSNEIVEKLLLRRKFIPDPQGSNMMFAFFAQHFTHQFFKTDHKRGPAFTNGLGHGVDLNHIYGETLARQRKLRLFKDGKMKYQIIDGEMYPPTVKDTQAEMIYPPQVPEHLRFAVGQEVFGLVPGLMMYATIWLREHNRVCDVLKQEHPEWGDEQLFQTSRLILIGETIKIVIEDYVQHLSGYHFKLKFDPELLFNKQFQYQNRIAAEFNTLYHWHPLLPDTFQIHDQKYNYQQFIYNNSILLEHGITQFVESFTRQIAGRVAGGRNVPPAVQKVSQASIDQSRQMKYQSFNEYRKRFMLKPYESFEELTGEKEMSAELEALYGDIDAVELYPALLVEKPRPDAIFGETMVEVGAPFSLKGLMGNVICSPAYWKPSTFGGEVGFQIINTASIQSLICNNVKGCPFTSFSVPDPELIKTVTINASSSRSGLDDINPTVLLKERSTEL

[9] = species: Rattus norvegicus; experiment: animal or person; conditions: read-out: INH
[10] = target: Prostaglandin G/H synthase 1 (Homo sapiens, UniProt P23219)
[11] = Half life in dog; assay type: ADME, organism-based, Canis lupus familiaris; conditions: in vivo
[12] = species: Rattus norvegicus; experiment: animal or person; conditions: read-out: INH; remark: listed apart in the source
[13] = Half life in rat; assay type: ADME, organism-based; conditions: in vivo
[14] = as §1; assay type: ADME, organism-based; conditions: in vivo

Chain of Prostaglandin G/H synthase 1 (P23219 whole entry): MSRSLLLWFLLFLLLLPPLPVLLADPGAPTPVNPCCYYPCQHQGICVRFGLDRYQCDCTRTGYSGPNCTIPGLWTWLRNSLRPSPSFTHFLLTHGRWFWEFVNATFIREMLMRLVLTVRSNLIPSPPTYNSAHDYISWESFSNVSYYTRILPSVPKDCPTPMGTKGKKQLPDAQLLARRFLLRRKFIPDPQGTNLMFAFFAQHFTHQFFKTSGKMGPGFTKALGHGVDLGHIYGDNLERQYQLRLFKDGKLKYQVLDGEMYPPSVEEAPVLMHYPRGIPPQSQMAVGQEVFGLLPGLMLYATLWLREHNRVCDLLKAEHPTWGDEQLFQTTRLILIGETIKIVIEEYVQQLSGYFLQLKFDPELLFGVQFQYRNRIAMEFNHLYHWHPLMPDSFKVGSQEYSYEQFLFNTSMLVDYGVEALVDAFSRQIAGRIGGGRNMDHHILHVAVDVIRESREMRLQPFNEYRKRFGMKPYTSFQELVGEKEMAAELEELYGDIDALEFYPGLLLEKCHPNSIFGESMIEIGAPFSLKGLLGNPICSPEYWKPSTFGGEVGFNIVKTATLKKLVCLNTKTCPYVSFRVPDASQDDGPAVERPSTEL

Work on `O=C(O)C1=Cc2cc(Cl)cc(Cl)c2O[C@@H]1C(F)(F)F` yielded an ED50 [1] of 0.54 mg/kg, an ED50 [2] of 0.54 mg/kg and a t1/2 [3] of 360 h. The ED50 [4] was 2.6 mg/kg, the Stability [5] was 100% and the ED50 [6] was 0.03 mg/kg. For the same molecule, the t1/2 [7] was 14.2 h.

For `CC(C)COc1c(Cl)cc2c(c1Cl)O[C@@H](C(F)(F)F)C(C(=O)O)=C2`, the IC50 [8] was < 0.028 µM.

Work on `CC(C)(C)c1cc2c(cc1Cl)C=C(C(=O)O)C(C(F)(F)F)O2` (configuration not stated) yielded an inhibition in vivo at 10 mg/kg [9] of 100% and a Stability [5] of 51%.

With `CCCc1cc2c(cc1Cl)C=C(C(=O)O)C(C(F)(F)F)O2` (configuration not stated) the inhibition in vivo at 10 mg/kg [9] was 49%.

Molecule `CC(C)CCc1cc2c(cc1Cl)C=C(C(=O)O)C(C(F)(F)F)O2` (configuration not stated) has an inhibition in vivo at 10 mg/kg [9] of 51%.

`CC(C)CSc1cc2c(cc1Cl)C=C(C(=O)O)C(C(F)(F)F)O2` (configuration not stated) gave an inhibition in vivo at 10 mg/kg [9] of 30%.

In the case of `CC(C)CN(C)c1cc2c(cc1Cl)C=C(C(=O)O)C(C(F)(F)F)O2` (configuration not stated), the inhibition in vivo at 10 mg/kg [9] is reported as 52%.

In the case of `CCC(CC)COc1cc2c(cc1Cl)C=C(C(=O)O)C(C(F)(F)F)O2` (configuration not stated), the inhibition in vivo at 10 mg/kg [9] is reported as 42%.

In the case of `Nc1c(Cl)ccc2c1C=C(C(=O)O)C(C(F)(F)F)O2` (configuration not stated), the IC50 [10] is reported as > 100 µM.

In the case of `CCOc1c(Cl)ccc2c1C=C(C(=O)O)C(C(F)(F)F)O2` (configuration not stated), the IC50 [8] is reported as > 100 µM and the IC50 [10] is reported as > 100 µM.

With `O=C(O)C1=Cc2cc(Cl)c(OCC3CCCC3)c(Cl)c2OC1C(F)(F)F` (configuration not stated) the IC50 [8] was < 0.006 µM and the IC50 [10] was < 0.14 µM.

For `CCC(CC)COc1c(Cl)cc2c(c1Cl)OC(C(F)(F)F)C(C(=O)O)=C2` (configuration not stated), the IC50 [8] was < 0.021 µM.

For `CC(C)(C)Oc1c(Cl)cc2c(c1Cl)OC(C(F)(F)F)C(C(=O)O)=C2` (configuration not stated), the IC50 [8] was < 0.028 µM and the IC50 [10] was < 0.14 µM.

For `O=C(O)C1=Cc2cc(Cl)c(OCC3CCCCC3)c(Cl)c2OC1C(F)(F)F` (configuration not stated), the IC50 [8] was < 0.034 µM.

Work on `CC(C)(C)c1cc2c(cc1Cl)C=C(C(=O)O)[C@@H](C(F)(F)F)O2` [TIGEMOCOXIB] yielded a half-life [11] of 18 h, an inhibition in vivo at 2 mg/kg [12] of 100% and an ED50 [1] of 2.7 mg/kg. The ED50 [2] was 0.43 mg/kg, the half-life [13] was 4 h and the half-life [14] was 34 h. The ED50 [4] was 4 mg/kg and the ED50 [6] was 0.08 mg/kg.
